Laboratory results taken from patent publication US11285153B2, “Substituted pyrimidine piperazine compound and use thereof” (SUNSHINE LAKE PHARMA CO., LTD., priority 2017, dated 2022).

Key:
mice = assay: Forced swimming test of mice, stationary time; format: in vivo, C57BL/6 mice; settings: for Stationary time: 3 mg/kg intraperitoneally 30 minutes before the test, last 4 minutes of 6 minutes, Mean ± SEM, vehicle 120.4 ± 16.5
Protocol: The effects of the compound of the invention on the stationary time in a forced swimming test of mice were evaluated in the present invention.
Animals (C57BL/6 mice) were fed in the animal house barrier system one week earlier to adapt to the rearing environment of animal house. Three days before the trial, each animal was touched 2-3 minutes/day. On the day of the experiment, the animals were transferred to the operating room 60 minutes in advance, and were randomly divided into a vehicle group (20% HP-β-CD+80% H2O), a 40 mg/kg dose group of hydrochloride of Desipramine as the standard reference compound, 1, 3, 10 mg/kg dose groups of the phosphate of the test compound, a 3 mg/kg dose group of the hydrochloride of Vilazone, and a 3 mg/kg dose group of hydrochloride of compound A, a total of 7 groups, the number of animals in each group was 15-16. The vehicle, the standard reference compound of Desipramine, the test compound, Vilazodone or Compound A were intraperitoneally injected 30 minutes before the test. The mice were placed in the experimental apparatus during the test. The experimental apparatus was a cylindrical organic transparent glass tank (23 cm high and 12 cm in diameter). The water level was 8 cm from the bottom and the water temperature was 22±2° C. The length of each test was 6 minutes. There was one animal in each sink, recorded by an Ethovision software and a double-blind manual counting analysis. The stationary time of the last 4 minutes of the animal was recorded. All the experimental results were expressed as mean ±standard error (Mean ±SEM). Prism 6.0 statistical software was used to test and analyze the results. The significance of the difference was P<0.05, and P<0.01 was very significant.

[1] = molecular target: T1, humanized 5-HT transporter (SERT) (Homo sapiens, UniProt P31645); assay: Affinity to humanized 5-HT transporter (SERT), [3H]imipramine binding, transfected CHO cell membranes; settings: 2 nM [3H]imipramine, 22° C., 60 minutes
T1 construct: expressed in transfected cells; host or cells: CHO cells, membrane homogenate
T1 sequence (P31645 whole entry): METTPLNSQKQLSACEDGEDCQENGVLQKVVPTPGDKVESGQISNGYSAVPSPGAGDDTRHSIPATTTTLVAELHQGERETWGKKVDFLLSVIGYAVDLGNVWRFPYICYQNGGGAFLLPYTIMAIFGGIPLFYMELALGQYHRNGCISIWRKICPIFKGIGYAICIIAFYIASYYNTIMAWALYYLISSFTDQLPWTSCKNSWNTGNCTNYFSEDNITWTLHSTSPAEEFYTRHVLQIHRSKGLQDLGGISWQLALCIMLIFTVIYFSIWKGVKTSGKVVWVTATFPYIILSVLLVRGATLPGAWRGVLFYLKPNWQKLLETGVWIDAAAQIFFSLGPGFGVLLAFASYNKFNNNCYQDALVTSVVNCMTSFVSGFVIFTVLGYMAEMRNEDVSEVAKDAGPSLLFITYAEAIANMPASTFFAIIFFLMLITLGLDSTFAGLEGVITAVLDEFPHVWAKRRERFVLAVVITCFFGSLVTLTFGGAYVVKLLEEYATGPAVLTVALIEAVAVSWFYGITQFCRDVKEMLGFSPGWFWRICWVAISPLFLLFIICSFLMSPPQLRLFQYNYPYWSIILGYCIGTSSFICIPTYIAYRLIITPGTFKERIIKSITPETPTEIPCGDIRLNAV
Protocol: Example A: Evaluation of the Affinity of the Compound of the Invention to Humanized 5-HT Transporter Transfected by CHQ Cells
To a mixture of cell membrane homogenate protein (12 μg), 2 nM [^3H] imipramine, buffer (50 mM Tris-HCl (pH 7.4), 120 mM NaCl, 5 mM KCl, and 0.1% BSA) was added test compound or not under a condition of 22° C. The reaction mixture was incubated for 60 minutes.
To the mixture of the above condition was added 10 μM imipramine to measure the non-specific binding value.
(§1) The incubated samples were quickly filtered through a glass fiber membrane (GF/B, Packard) impregnated with 0.3% PEI by a 96-well cell collector (Unifilter, Packard) under vacuum, and repeatedly rinsed with cold 50 mM Tris-HCl and 150 mM NaCl for several times. The filter was dried and the residual radioactivity was calculated in a scintillation counter (Topcount, Packard) by using scintillation fluid (Microscint 0, Packard). The experimental results were expressed as a percentage of inhibition of specific binding of radioligand to the control group.
The standard reference compound was imipramine. The competitive curve was obtained by a series of concentration experiments and the IC50 was calculated.

5-HT1A receptor = molecular target: T2, 5-HT1A receptor (Homo sapiens, UniProt P08908); assay: h5-HT1A binding affinity test, [3H]8-OH-DPAT, HEK-293 cell membranes; settings: 0.3 nM [3H]8-OH-DPAT, 22° C., 60 minutes; from IC50 by ChengPrusoff equation
T2 construct: host or cells: human HEK-293 cells, membrane homogenate
T2 sequence (P08908 1-422): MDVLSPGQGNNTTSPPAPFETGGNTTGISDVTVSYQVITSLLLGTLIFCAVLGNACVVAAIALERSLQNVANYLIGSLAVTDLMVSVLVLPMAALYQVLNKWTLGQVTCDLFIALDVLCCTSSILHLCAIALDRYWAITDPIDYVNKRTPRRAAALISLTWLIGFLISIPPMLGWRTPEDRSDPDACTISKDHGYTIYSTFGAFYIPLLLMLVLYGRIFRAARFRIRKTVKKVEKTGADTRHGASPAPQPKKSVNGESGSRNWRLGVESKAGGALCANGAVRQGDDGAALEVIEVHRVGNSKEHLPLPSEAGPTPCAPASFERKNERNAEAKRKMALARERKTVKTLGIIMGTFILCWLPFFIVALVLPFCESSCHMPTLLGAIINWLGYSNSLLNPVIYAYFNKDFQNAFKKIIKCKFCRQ
Protocol: Example B: h5-HT1A Binding Affinity Test
To a mixture of human HEK-293 cell membrane homogenate (36 μg protein), 0.3 nM [^3H]8-OH-DPAT (Perkin-Elmer) and buffer (50 mM Tris-HCl (pH 7.4), 10 mM MgSO4, 0.5 mM EDTA, 2 μg/ml aprotinine) was added test compound or not under a condition of 22° C. The reaction mixture was incubated for 60 minutes.
The standard reference compound was 8-OH-DPAT. To a mixture of the above condition was added 10 μM 8-OH-DPAT to measure the non-specific binding value. A competitive curve was obtained by testing the data of a series of concentrations of 8-OH-DPAT in different experiments.
as §1, with “Tris-HCl” for “Tris-HCl and 150 mM NaCl”
The binding assay of [^3H]8-OH-DPAT (0.3 nM) to the 5-HT1A receptor in human HEK-293 cells was performed by a scintillation proximity assay of the membrane. The test compound needed to be tested at least three times at a concentration exceeding 6 log, and the data was subjected to nonlinear regression analysis by a Hill equation curve to obtain an IC50 value, which was then calculated by the ChengPrusoff equation to obtain a Ki value.

[2] = Pharmacokinetic evaluation in rats after intravenous or intragastric administration; format: in vivo; settings: SD, rat, plasma
Protocol: Pharmacokinetics of the compound of the invention in rats, dogs and monkeys were studied and evaluated.
The compound was administered to the tested animals in the form of 5% DMSO+5% Kolliphor HS15+2% (2% HCl)+88% Saline saline solution or 10% DMSO+10% Kolliphor HS15+80% normal saline solution. For the intravenous administration group, the dose was 1 mg/kg, and then the venous blood (0.3 mL) was taken at a time of 0, 0.083, 0.25, 0.5, 1.0, 2.0, 5.0, 7.0, and 24 hours after administration, and centrifuged at 3,000 or 4,000 rpm for 10 minutes. The plasma solution was collected and stored at −20° C. or −70° C. For the intragastric administration group, the dose was 2.5 mg/kg, and then the venous blood (0.3 mL) was taken at a time of 0, 0.083, 0.25, 0.5, 1.0, 2.0, 5.0, 7.0, and 24 hours after administration, and centrifuged at 3,000 or 4,000 rpm for 10 minutes. The plasma solution was collected and stored at −20° C. or −70° C.
The plasma solutions obtained from each of the above groups were subjected to LC/MS/MS analysis.
The LC/MS/MS system for analysis included the Agilent 1200 Series vacuum degasser, binary pump, orifice autosampler, thermostatic column oven, and Agilent G6430A triple quadrupole mass spectrometer with electrospray ionization (ESI) source.
Analysis was performed using a waters XBridge C18 (2.1×50 mm) column. The column was 3.5 μM and injection volume was 5 μL. The analytical conditions were as follows: mobile phase A: water+2 mM ammonium formate+0.1% formic acid mobile phase B: methanol+2 mM ammonium formate+0.1% formic acid. The flow rate was 0.4 mL/min.

| Compound | IC50 [1] [nM] | Ki (5-HT1A receptor) [nM] | also measured |
| --- | --- | --- | --- |
| Cc1nc(-c2cnc(N3CCN(CCCc4c[nH]c5ccc(C#N)cc45)CC3)nc2)sc1C(N)=O [drawing 37] |  |  | Stationary time (mice): 75.1 ± 13.3 s |
| N#Cc1ccc2[nH]cc(CCCN3CCN(c4ncc(-c5ccc(C(N)=O)cn5)cn4)CC3)c2c1 [Example 2, 6-(2-(4-(3-(5-cyano-1H-indol-3-yl)propyl)piperazin-1-yl)pyrimidin-5-yl)nicotinamide] | 0.45 | 4.31 |  |
| CCOC(=O)c1sc(-c2cnc(N3CCN(CCCc4c[nH]c5ccc(C#N)cc45)CC3)nc2)nc1C [Example 10, ethyl 2-(2-(4-(3-(5-cyano-1H-indol-3-yl)propyl)piperazin-1-yl)pyrimidin-5-yl)-4-methylthiazole-5-formate] | 0.13 | 2.16 |  |
| N#Cc1ccc2[nH]cc(CCCCN3CCN(c4ncc(-c5ccc(C(N)=O)cn5)cn4)CC3)c2c1 [Example 1, 6-(2-(4-(4-(5-cyano-1H-indol-3-yl)butyl)piperazin-1-yl)pyrimidin-5-yl)nicotinamide] | 0.68 | 2.13 |  |
| N#Cc1ccc2[nH]cc(CCCCN3CCN(c4ncc(-c5cccc(C(N)=O)n5)cn4)CC3)c2c1 [Example 5, 6-(2-(4-(4-(5-cyano-1H-indol-3-yl)butyl)piperazin-1-yl)pyrimidin-5-yl)pyridine-2-carboxamide] | 0.66 | 0.53 |  |
| N#Cc1ccc2[nH]cc(CCCN3CCN(c4ncc(-c5cccc(C(N)=O)n5)cn4)CC3)c2c1 [Example 6, 6-(2-(4-(3-(5-cyano-1H-indol-3-yl)propyl)piperazin-1-yl)pyrimidin-5-yl)pyridine-2-carboxamide] | 0.23 | 1.1 |  |
| CCOC(=O)c1sc(-c2cnc(N3CCN(CCCCc4c[nH]c5ccc(C#N)cc45)CC3)nc2)nc1C [Example 9, ethyl 2-(2-(4-(4-(5-cyano-1H-indol-3-yl)butyl)piperazin-1-yl)pyrimidin-5-yl)-4-methylthiazole-5-formate] | 0.45 | 0.99 |  |
| N#Cc1ccc2[nH]cc(CCCN3CCN(c4ncc(-c5ccc(C(N)=O)nc5)cn4)CC3)c2c1 [Example 4, 5-(2-(4-(3-(5-cyano-1H-indol-3-yl)propyl)piperazin-1-yl)pyrimidin-5-yl)pyridine-2-carboxamide] | 0.81 | 4.13 |  |
| N#Cc1ccc2[nH]cc(CCCCN3CCN(c4ccc5oc(C(N)=O)cc5c4)CC3)c2c1 [Vilazodone] |  |  | Stationary time (mice): 107.8 ± 16.1 s; Effect on stationary time compared with the vehicle group (mice; forced swimming test, same dose (3 mg/kg)): slightly reduce the stationary time of mice, but there is no significant difference |
| N#Cc1ccc2[nH]cc(CCCCN3CCN(c4ncc(-c5ccc(C(N)=O)nc5)cn4)CC3)c2c1 [Example 3, 5-(2-(4-(4-(5-cyano-1H-indol-3-yl)butyl)piperazin-1-yl)pyrimidin-5-yl)pyridine-2-carboxamide] | 0.79 | 2.19 |  |
| Cc1nc(-c2cnc(N3CCN(CCCCc4c[nH]c5ccc(C#N)cc45)CC3)nc2)sc1C(N)=O [Example 7, 2-(2-(4-(4-(5-cyano-1H-indol-3-yl)butyl)piperazin-1-yl)pyrimidin-5-yl)-4-methylthiazole-5-formamide] | 0.77 | 1.01 |  |
| Cc1nc(-c2cnc(N3CCN(CCCc4c[nH]c5ccc(C#N)cc45)CC3)nc2)sc1C(N)=O [Example 8, 2-(2-(4-(3-(5-cyano-1H-indol-3-yl)propyl)piperazin-1-yl)pyrimidin-5-yl)-4-methylthiazole-5-formamide] | 0.33 | 2.14 | AUC(0-inf) ([2]; iv, 1 mg/kg): 1820 ng·h/mL; AUC(0-t) ([2]; iv, 1 mg/kg): 1740 ng·h/mL; Cmax ([2]; iv, 1 mg/kg): 1000 ng/mL; Tmax ([2]; iv, 1 mg/kg): 0.083 h; clearance ([2]; iv, 1 mg/kg): 9.22 mL/min/kg; half-life ([2]; iv, 1 mg/kg): 1.72 h; Vd ([2]; iv, 1 mg/kg, read-out: Vss): 1.3 L/kg; AUC(0-inf) ([2]; po, 2.5 mg/kg): 1550 ng·h/mL; AUC(0-t) ([2]; po, 2.5 mg/kg): 1740 ng·h/mL; Cmax ([2]; po, 2.5 mg/kg): 590 ng/mL; Tmax ([2]; po, 2.5 mg/kg): 1 h; bioavailability ([2]; po, 2.5 mg/kg): 39.8%; half-life ([2]; po, 2.5 mg/kg): 1.58 h |
